This note sets out measurements from paper PMC10454409, “Hybrids of Sterically Hindered Phenols and Diaryl Ureas: Synthesis, Switch from Antioxidant Activity to ROS Generation and Induction of Apoptosis” (International Journal of Molecular Sciences, 2023).

Read-outs that look alike come from different tables or passages of the source.

Experiment [1] relates to MCF-7 cells (human breast adenocarcinoma). Briefly: MTT cytotoxicity test, MCF-7. To be noted: Homo sapiens, MCF7, MTT test; 24 h incubation per text, 48 h per method. It is filed as cell-based. The procedure, abridged: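 Viable MCF-7 cells quantified by MTT reduction to formazan, dissolved in DMSO and read at 540 nm. Triplicate experiments.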
Background: Formazan colour is commonly taken as a measure of viable cells.

The subject of experiment [2] is HuTu 80 cells (human duodenal adenocarcinoma). Briefly: MTT cytotoxicity test, HuTu 80. It is filed as cell-based. Put shortly: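 Cells seeded at 5 × 10^3 per well and grown at 37 °C to monolayer, then exposed to compounds for 48 h. Viability by MTT (0.5 mg/mL, serum-free medium, 4 h, 37 °C), formazan dissolved in DMSO, OD 540 nm. IC50 estimated from triplicate experiments.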

Experiment [3] in a line: DPPH antiradical assay. To be noted: DPPH 100 μM. The procedure: Figure 4 Antioxidant potential of the tested compounds. (a) Inhibition of lipid peroxidation (LPO) in rat brain homogenates (2 mg/mL) initiated by Fe(II) ions (concentration of 500 µM) in the tested compounds at a concentration of 100 µM. (b) Concentration dependences of LPO inhibition for the studied compounds in the concentration range from 1 µM to 100 µM. (c) Oxygen Radical Absorbance Capacity (ORAC) of the studied compounds and ORAC values expressed as Trolox equivalent (TE). (d) DPPH antiradical activity of the compounds under study and DPPH values expressed as TE. The concentration of studied compounds and Trolox was 100 µM, the concentration of DPPH was 100 μM, and the concentration of AAPH was […]. Statistical significance was assessed using one-way ANOVA and Dunnett’s multiple comparison tests, where **** p < 0.0001, *** p < 0.001 and ** p < 0.01 vs. control. […]
Background: DPPH is a stable violet radical that fades when it is reduced.

As a reminder, the IC50 is the concentration at which inhibition is half-maximal.

With `CCOP(=O)(OCC)C(c1cc(C(C)(C)C)c(O)c(C(C)(C)C)c1)c1ccc(NC(=O)Nc2ccc([N+](=O)[O-])cc2)cc1NC(=O)Nc1ccc([N+](=O)[O-])cc1` (centres unmarked) [17b], the concentration for half-maximal inhibition (IC50) in experiment [1] is 51 ± 4.2 µM; in experiment [2] (Homo sapiens, HuTu80, read-out: IC50, HuTu 80), < 15 µM; in experiment [2] (read-out: IC50, HuTu 80), 13.2 µM. The DPPH antiradical activity in experiment [3] (compound 100 µM) was 64.8 ± 0.7%. For the same compound, the “DPPH value (Trolox equivalent)” value in experiment [3] (compounds and Trolox 100 µM) was 1.27 Trolox equivalent.
